Read-outs that look alike come from different tables or passages of the source.

Here are results for 25 compounds from patent US10913738B2 (BRISTOL-MYERS SQUIBB COMPANY, priority 2017, dated 2021).

The test system of assay [1] is MLKL phosphorylation in HT29-L23 human colorectal adenocarcinoma cells. Briefly: MLKL Phosphorylation High-Content Assay. It counts as cell-based. Conditions: Homo sapiens. In a few lines:
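IC50 and Ymax obtained by 4-parameter logistic fitting of MLKL phosphorylation, measured as mean circ-ring average intensity ratio from high-content images. Staining used an anti-phospho-S358 MLKL antibody overnight at 4° C., following six-hour cell incubation at 37° C.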

Assay [2] concerns the target T1, His-GST-TVMV-hRIPK1(1-324) (Homo sapiens, UniProt Q13546).
T1 construct: The coding region of human RIPK1(1-324) flanked by NdeI site at 5′ end; made in house; host or cells: Spodoptera frugiperda (Sf9) insect cells, baculovirus
T1 sequence (Q13546 1-324): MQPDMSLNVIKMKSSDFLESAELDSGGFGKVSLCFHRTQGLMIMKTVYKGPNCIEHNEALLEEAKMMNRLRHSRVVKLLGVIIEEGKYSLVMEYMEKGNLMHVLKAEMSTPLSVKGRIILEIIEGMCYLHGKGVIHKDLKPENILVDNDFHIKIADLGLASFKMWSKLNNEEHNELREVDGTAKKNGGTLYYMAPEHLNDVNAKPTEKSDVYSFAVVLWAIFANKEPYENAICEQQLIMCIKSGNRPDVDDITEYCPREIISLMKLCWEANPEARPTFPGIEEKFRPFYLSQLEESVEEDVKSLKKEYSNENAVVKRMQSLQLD
Briefly: RIPK1 HTRF Binding Assay. On the technique in general: In TR-FRET formats the signal depends on donor and acceptor labels being close together.

The mark [3] stands for this setting: x marks IC50 class <20 nM, read-out: pMLKL cell activity <20 nM.
The mark [4] stands for this setting: x marks IC50 class 20-200 nM, read-out: RIPK1 HTRF binding 20-200 nM.
[5] abbreviates: x marks IC50 class 20-200 nM, read-out: pMLKL cell activity 20-200 nM.
The mark [6] stands for this setting: x marks IC50 class <20 nM, read-out: RIPK1 HTRF binding <20 nM.
Where [7] appears, read: x marks IC50 class >200 nM, read-out: pMLKL cell activity >200 nM.

As for `CCc1ncc(-c2ccn3nc(N)nc3c2)cc1C(=O)N[C@H](C)c1cc(OC(F)(F)F)ccc1F` [Example 320, (R)-5-(2-amino-[1,2,4]triazolo[1,5-a]pyridin-7-yl)-2-ethyl-N-(1-(2-fluoro-5-(trifluoromethoxy)phenyl)ethyl)nicotinamide], the IC50 in assay [1] (setting [3]) is less than 0.02 µM; in assay [2] (setting [4]) it was 0.02 to 0.2 µM.

As to `CCc1ncc(-c2ccn3nc(N)nc3c2)cc1C(=O)N[C@@H](C)c1cc(OC(F)(F)F)ccc1F` [Example 321, (S)-5-(2-amino-[1,2,4]triazolo[1,5-a]pyridin-7-yl)-2-ethyl-N-(1-(2-fluoro-5-(trifluoromethoxy)phenyl)ethyl)nicotinamide], the IC50 in assay [1] (setting [5]) and in assay [2] (setting [4]) was 0.02 to 0.2 µM each time.

For the compound `CCc1ncc(-c2ccn3nc(N)nc3c2)cc1C(=O)NCc1cc(C(F)(F)F)ccc1F` [Example 322, 5-(2-amino-[1,2,4]triazolo[1,5-a]pyridin-7-yl)-2-ethyl-N-(2-fluoro-5-(trifluoromethyl)benzyl)nicotinamide], the IC50 in assay [1] (setting [5]) and in assay [2] (setting [4]) was 0.02 to 0.2 µM in each case.

`Cc1nc(Cl)c(C(=O)N[C@H](C)c2cc(OC(F)(F)F)ccc2F)cc1-c1ccn2nc(N)nc2c1` [Example 323, (R)-5-(2-amino-[1,2,4]triazolo[1,5-a]pyridin-7-yl)-2-chloro-N-(1-(2-fluoro-5-(trifluoromethoxy)phenyl)ethyl)-6-methylnicotinamide]: the IC50 in assay [1] (setting [5]) and in assay [2] (setting [4]) was 0.02 to 0.2 µM in each case.

`C[C@@H](NC(=O)c1cc(-c2ccn3nc(N)nc3c2)cnc1Cl)c1cc(OC(F)(F)F)ccc1F` [Example 324, (R)-5-(2-amino-[1,2,4]triazolo[1,5-a]pyridin-7-yl)-2-chloro-N-(1-(2-fluoro-5-(trifluoromethoxy)phenyl)ethyl)nicotinamide]: the IC50 in assay [1] (setting [5]) is 0.02 to 0.2 µM; in assay [2] (setting [6]), less than 0.02 µM.

As to `COc1nc(C)c(-c2ccn3nc(N)nc3c2)cc1C(=O)N(C)[C@H](C)c1cc(OC(F)(F)F)ccc1F` [Example 325, (R)-5-(2-amino-[1,2,4]triazolo[1,5-a]pyridin-7-yl)-N-(1-(2-fluoro-5-(trifluoromethoxy)phenyl)ethyl)-2-methoxy-N,6-dimethylnicotinamide], the IC50 in assay [1] (setting [5]) and in assay [2] (setting [4]) was 0.02 to 0.2 µM throughout.

As for `COc1nc(C)c(-c2ccn3nc(N)nc3c2)cc1C(=O)NCc1cccc(F)c1CN1CCCC1` [Example 326, 5-(2-Amino-[1,2,4]triazolo[1,5-a]pyridin-7-yl)-N-(3-fluoro-2-(pyrrolidin-1-ylmethyl)benzyl)-2-methoxy-6-methylnicotinamide], the results for the IC50 in assay [1] (setting [7]) and in assay [2] (setting [4]) were more than 0.2 µM and 0.02 to 0.2 µM, respectively.

Regarding `COc1nc(C)c(-c2ccn3nc(N)nc3c2)cc1C(=O)NCc1ccccc1OCC(C)C` [Example 327, 5-(2-amino-[1,2,4]triazolo[1,5-a]pyridin-7-yl)-N-(2-isobutoxybenzyl)-2-methoxy-6-methylnicotinamide], the IC50 in assay [1] (setting [3]) and in assay [2] (setting [6]) was less than 0.02 µM in each case.

In the case of `COc1nc(C)c(-c2ccn3nc(N)nc3c2)cc1C(=O)NCc1c(F)cccc1OCC(F)(F)F` [Example 328, 5-(2-amino-[1,2,4]triazolo[1,5-a]pyridin-7-yl)-N-(2-fluoro-6-(2,2,2-trifluoroethoxy)benzyl)-2-methoxy-6-methylnicotinamide], the IC50 in assay [1] (setting [3]) and in assay [2] (setting [6]) was less than 0.02 µM in each case.

Turning to `COc1nc(C)c(-c2ccn3nc(N)nc3c2)cc1C(=O)NCc1cc(F)ccc1OC(F)(F)F` [Example 329, 5-(2-amino-[1,2,4]triazolo[1,5-a]pyridin-7-yl)-N-(5-fluoro-2-(trifluoromethoxy)benzyl)-2-methoxy-6-methylnicotinamide], the IC50 is 0.02 to 0.2 µM in assay [1] (setting [5]) and less than 0.02 µM in assay [2] (setting [6]).

As for `COc1nc(C)c(-c2ccn3nc(N)nc3c2)cc1C(=O)NCc1ccccc1COC(C)C` [Example 330, 5-(2-amino-[1,2,4]triazolo[1,5-a]pyridin-7-yl)-N-(2-(isopropoxymethyl)benzyl)-2-methoxy-6-methylnicotinamide], the IC50 in assay [1] (setting [5]) was 0.02 to 0.2 µM; in assay [2] (setting [6]), less than 0.02 µM.

With `[2H]C([2H])(NC(=O)c1cc(-c2ccn3nc(N)nc3c2)c(C)nc1OC)c1cc(C(F)(F)F)ccc1F` [Example 331, 5-(2-amino-[1,2,4]triazolo[1,5-a]pyridin-7-yl)-N-((2-fluoro-5-(trifluoromethyl)phenyl)methyl-d2)-2-methoxy-6-methylnicotinamide], the IC50 in assay [1] (setting [5]) is 0.02 to 0.2 µM; in assay [2] (setting [6]), less than 0.02 µM.

In the case of `COc1nc(C)c(-c2ccn3nc(N)nc3c2)cc1C(=O)NCc1ccccc1OCC(F)(F)F` [Example 332, 5-(2-amino-[1,2,4]triazolo[1,5-a]pyridin-7-yl)-2-methoxy-6-methyl-N-(2-(2,2,2-trifluoroethoxy)benzyl)nicotinamide], the IC50 in assay [1] (setting [5]) was 0.02 to 0.2 µM; in assay [2] (setting [6]), less than 0.02 µM.

Take `COc1nc(C)c(-c2ccn3nc(N)nc3c2)cc1C(=O)NCc1cc(F)cc(F)c1OCC(C)C` [Example 333, 5-(2-amino-[1,2,4]triazolo[1,5-a]pyridin-7-yl)-N-(3,5-difluoro-2-isobutoxybenzyl)-2-methoxy-6-methylnicotinamide]: the IC50 is 0.02 to 0.2 µM in assay [1] (setting [5]) and less than 0.02 µM in assay [2] (setting [6]).

In the case of `COc1nc(C)c(-c2ccn3nc(N)nc3c2)cc1C(=O)NCc1cccc(OCC(F)(F)F)c1` [Example 334, 5-(2-amino-[1,2,4]triazolo[1,5-a]pyridin-7-yl)-2-methoxy-6-methyl-N-(3-(2,2,2-trifluoroethoxy)benzyl)nicotinamide], the values for the IC50 in assay [1] (setting [5]) and in assay [2] (setting [6]) were 0.02 to 0.2 µM and less than 0.02 µM, respectively.

As to `[2H]C([2H])(NC(=O)c1cc(-c2ccn3nc(N)nc3c2)c(C)nc1OC)c1cccc(C(F)(F)F)c1` [Example 335, 5-(2-amino-[1,2,4]triazolo[1,5-a]pyridin-7-yl)-2-methoxy-6-methyl-N-((3-(trifluoromethyl)phenyl)methyl-d2)nicotinamide], the IC50 in assay [1] (setting [5]) and in assay [2] (setting [4]) was 0.02 to 0.2 µM in each case.

`COc1nc(C)c(-c2ccn3nc(N)nc3c2)cc1C(=O)NCc1cc(C(F)(F)F)cc(Cl)c1F` [Example 336, 5-(2-amino-[1,2,4]triazolo[1,5-a]pyridin-7-yl)-N-(3-chloro-2-fluoro-5-(trifluoromethyl)benzyl)-2-methoxy-6-methylnicotinamide]: the IC50 in assay [1] (setting [5]) and in assay [2] (setting [4]) was 0.02 to 0.2 µM each time.

For the compound `COc1ccc(F)c(CNC(=O)c2cc(-c3ccn4nc(N)nc4c3)c(C)nc2OC)c1` [Example 337, 5-(2-amino-[1,2,4]triazolo[1,5-a]pyridin-7-yl)-N-(2-fluoro-5-methoxybenzyl)-2-methoxy-6-methylnicotinamide], the IC50 in assay [1] (setting [7]) is more than 0.2 µM; in assay [2] (setting [4]), 0.02 to 0.2 µM.

Take `COc1ncc(-c2ccn3nc(N)nc3c2)cc1C(=O)NCc1c(OCC2CC2)ccc(F)c1F` [Example 338, 5-(2-amino-[1,2,4]triazolo[1,5-a]pyridin-7-yl)-N-(6-(cyclopropylmethoxy)-2,3-difluorobenzyl)-2-methoxynicotinamide]: the IC50 in assay [1] (setting [3]) and in assay [2] (setting [6]) was less than 0.02 µM each time.

As for `COc1ncc(-c2ccn3nc(N)nc3c2)cc1C(=O)NCc1cc(F)ccc1OCC(F)(F)F` [Example 339, 5-(2-amino-[1,2,4]triazolo[1,5-a]pyridin-7-yl)-N-(5-fluoro-2-(2,2,2-trifluoroethoxy)benzyl)-2-methoxynicotinamide], the IC50 in assay [1] (setting [3]) and in assay [2] (setting [6]) was less than 0.02 µM throughout.

As to `COc1ncc(-c2ccn3nc(N)nc3c2)cc1C(=O)NCc1ccccc1OCC(C)C` [Example 340, 5-(2-amino-[1,2,4]triazolo[1,5-a]pyridin-7-yl)-N-(2-isobutoxybenzyl)-2-methoxynicotinamide], the IC50 is 0.02 to 0.2 µM in assay [1] (setting [5]) and less than 0.02 µM in assay [2] (setting [6]).

For the compound `COc1ncc(-c2ccn3nc(N)nc3c2)cc1C(=O)NCc1cc(F)cc(F)c1OC1CCCOC1` (centres unmarked) [Example 342, 5-(2-amino-[1,2,4]triazolo[1,5-a]pyridin-7-yl)-N-(3,5-difluoro-2-((tetrahydro-2H-pyran-3-yl)oxy)benzyl)-2-methoxynicotinamide], the values for the IC50 in assay [1] (setting [5]) and in assay [2] (setting [6]) were 0.02 to 0.2 µM and less than 0.02 µM, respectively.

With `COc1ncc(-c2ccn3nc(N)nc3c2)cc1C(=O)NCc1ccccc1OCC(F)(F)F` [Example 343, 5-(2-amino-[1,2,4]triazolo[1,5-a]pyridin-7-yl)-2-methoxy-N-(2-(2,2,2-trifluoroethoxy)benzyl)nicotinamide], the IC50 in assay [1] (setting [5]) was 0.02 to 0.2 µM; in assay [2] (setting [6]), less than 0.02 µM.

As to `COc1ncc(-c2ccn3nc(N)nc3c2)cc1C(=O)NCc1cc(F)cc(F)c1OC1CC1` [Example 344, 5-(2-amino-[1,2,4]triazolo[1,5-a]pyridin-7-yl)-N-(2-cyclopropoxy-3,5-difluorobenzyl)-2-methoxynicotinamide], the values for the IC50 in assay [1] (setting [5]) and in assay [2] (setting [6]) were 0.02 to 0.2 µM and less than 0.02 µM, respectively.

For the compound `[2H]C([2H])([2H])[C@@H](NC(=O)c1cc(-c2ccn3nc(N)nc3c2)cnc1OC)c1cccc(OC(F)(F)F)c1` [Example 346, (R)-5-(2-amino-[1,2,4]triazolo[1,5-a]pyridin-7-yl)-2-methoxy-N-(1-(3-(trifluoromethoxy)phenyl)ethyl-2,2,2-d3)nicotinamide], the IC50 in assay [1] (setting [5]) was 0.02 to 0.2 µM; in assay [2] (setting [6]) it was less than 0.02 µM.
